Consider eight molecules from ChEMBL document CHEMBL1156521, “Three-dimensional structure of the EphB2 receptor in complex with an antagonistic peptide reveals a novel mode of inhibition” (J Biol Chem, 2007).

Structures are written as SMILES. Residues, ends and D or L forms follow the SMILES beside them.

The first assay addresses T1, Ephrin type-B receptor 2 (Mus musculus, UniProt P54763).
T1 sequence (P54763 whole entry): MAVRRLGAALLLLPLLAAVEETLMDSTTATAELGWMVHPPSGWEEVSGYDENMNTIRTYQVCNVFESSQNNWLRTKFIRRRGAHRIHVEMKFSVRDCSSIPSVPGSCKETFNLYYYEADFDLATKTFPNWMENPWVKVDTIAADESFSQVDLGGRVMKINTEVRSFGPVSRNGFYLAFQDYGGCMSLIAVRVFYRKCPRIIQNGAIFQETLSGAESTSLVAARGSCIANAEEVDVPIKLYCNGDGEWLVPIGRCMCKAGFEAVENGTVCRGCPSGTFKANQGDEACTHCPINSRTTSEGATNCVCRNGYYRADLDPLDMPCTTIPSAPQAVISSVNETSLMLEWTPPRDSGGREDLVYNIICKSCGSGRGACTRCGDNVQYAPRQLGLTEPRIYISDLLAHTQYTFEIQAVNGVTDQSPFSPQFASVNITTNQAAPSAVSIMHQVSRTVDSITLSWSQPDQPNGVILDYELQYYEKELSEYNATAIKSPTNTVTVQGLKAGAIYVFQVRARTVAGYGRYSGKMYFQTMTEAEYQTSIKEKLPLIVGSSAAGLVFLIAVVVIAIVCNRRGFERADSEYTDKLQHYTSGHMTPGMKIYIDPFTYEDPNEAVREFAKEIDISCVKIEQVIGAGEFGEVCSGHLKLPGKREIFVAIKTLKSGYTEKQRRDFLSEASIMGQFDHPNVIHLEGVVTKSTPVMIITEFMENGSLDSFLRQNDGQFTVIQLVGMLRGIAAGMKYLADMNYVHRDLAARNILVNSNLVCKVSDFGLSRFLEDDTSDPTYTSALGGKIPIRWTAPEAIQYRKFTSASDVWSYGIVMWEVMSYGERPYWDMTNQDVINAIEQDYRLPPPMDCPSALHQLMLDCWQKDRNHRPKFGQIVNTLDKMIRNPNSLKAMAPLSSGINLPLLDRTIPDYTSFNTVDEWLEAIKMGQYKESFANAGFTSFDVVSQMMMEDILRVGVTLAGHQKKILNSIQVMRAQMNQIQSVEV
The assay is described as follows: Binding affinity at mouse EphB2 receptor by ELISA.
One may read the IC50 as the concentration that gives 50% inhibition. Low values mean greater potency, high ones weaker potency. In the case of `CC[C@H](C)[C@H](NC(=O)[C@H](Cc1c[nH]c2ccccc12)NC(=O)[C@H](CCC(=O)O)NC(=O)[C@H](CC(N)=O)NC(=O)[C@@H](N)CO)C(=O)N[C@@H](CCC(N)=O)C(=O)N1CCC[C@H]1C(=O)N[C@@H](CCCNC(=N)N)C(=O)N[C@@H](CC(C)C)C(=O)N1CCC[C@H]1C(=O)N[C@@H](CCC(N)=O)C(=O)N[C@@H](Cc1cnc[nH]1)C(=O)O`, the IC50 was 15 µM.

The next assay concerns the target T2, Ephrin type-B receptor 2 (Homo sapiens, UniProt P29323).
T2 sequence (P29323 whole entry): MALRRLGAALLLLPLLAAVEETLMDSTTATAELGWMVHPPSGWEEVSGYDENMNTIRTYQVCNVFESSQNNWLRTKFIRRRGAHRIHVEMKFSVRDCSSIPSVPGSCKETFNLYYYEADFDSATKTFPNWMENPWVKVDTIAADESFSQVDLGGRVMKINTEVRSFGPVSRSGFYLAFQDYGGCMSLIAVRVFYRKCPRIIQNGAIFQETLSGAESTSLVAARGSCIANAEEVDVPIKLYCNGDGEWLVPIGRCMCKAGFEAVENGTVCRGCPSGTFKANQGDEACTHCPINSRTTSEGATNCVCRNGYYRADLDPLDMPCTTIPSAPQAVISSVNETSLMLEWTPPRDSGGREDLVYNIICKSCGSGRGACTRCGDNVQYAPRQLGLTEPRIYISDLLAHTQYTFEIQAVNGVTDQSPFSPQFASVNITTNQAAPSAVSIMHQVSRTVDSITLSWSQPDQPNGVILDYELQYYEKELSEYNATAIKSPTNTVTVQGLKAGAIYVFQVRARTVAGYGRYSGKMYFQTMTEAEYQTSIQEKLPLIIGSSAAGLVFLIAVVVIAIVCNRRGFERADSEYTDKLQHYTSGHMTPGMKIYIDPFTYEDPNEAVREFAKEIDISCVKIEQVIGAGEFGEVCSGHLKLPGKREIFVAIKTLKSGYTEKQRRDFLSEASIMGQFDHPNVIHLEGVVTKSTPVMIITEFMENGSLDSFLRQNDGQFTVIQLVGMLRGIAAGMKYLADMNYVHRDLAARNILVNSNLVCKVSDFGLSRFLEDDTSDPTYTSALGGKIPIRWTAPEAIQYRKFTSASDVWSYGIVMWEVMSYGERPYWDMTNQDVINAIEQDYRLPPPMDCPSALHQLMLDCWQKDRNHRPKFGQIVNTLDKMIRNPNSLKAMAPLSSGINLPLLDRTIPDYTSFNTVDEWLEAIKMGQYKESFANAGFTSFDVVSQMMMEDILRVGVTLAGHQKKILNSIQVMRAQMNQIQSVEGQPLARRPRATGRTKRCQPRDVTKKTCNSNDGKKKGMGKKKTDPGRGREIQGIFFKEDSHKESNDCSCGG
The experiment in a line: Binding affinity at human EphB2 receptor by isothermal titration calorimetry.
The term Kd denotes the constant that tells how readily two partners part at equilibrium. Read a high Kd as lower affinity. As for `CC[C@H](C)[C@H](NC(=O)[C@H](Cc1c[nH]c2ccccc12)NC(=O)[C@H](CCC(N)=O)NC(=O)[C@H](CC(N)=O)NC(=O)[C@@H](N)CO)C(=O)N[C@@H](CCC(N)=O)C(=O)N1CCC[C@H]1C(=O)N[C@@H](CCCN=C(N)N)C(=O)N[C@@H](CC(C)C)C(=O)N1CCC[C@H]1C(=O)N[C@@H](CCC(N)=O)C(=O)N[C@@H](Cc1cnc[nH]1)C(=O)O` (H-SNQWIQPRLPQH-OH), the dissociation constant (Kd) was greater than 50 µM. Same read-out and setting: with `CC[C@H](C)[C@H](NC(=O)[C@H](Cc1c[nH]c2ccccc12)NC(=O)[C@H](CCC(N)=O)NC(=O)[C@H](CC(N)=O)NC(=O)[C@@H](N)CO)C(=O)NCC(=O)N1CCC[C@H]1C(=O)N[C@@H](C)C(=O)N[C@@H](CC(C)C)C(=O)N1CCC[C@H]1C(=O)N[C@@H](CCC(N)=O)C(=O)N[C@@H](Cc1cnc[nH]1)C(=O)O` (H-SNQWIGPALPQH-OH) the figure was greater than 50 µM. On the same count and under the same terms, with `CC[C@H](C)[C@H](NC(=O)[C@H](Cc1c[nH]c2ccccc12)NC(=O)[C@H](CCC(N)=O)NC(=O)[C@H](CC(N)=O)NC(=O)[C@@H](N)CO)C(=O)N[C@@H](CO)C(=O)N1CCC[C@H]1C(=O)N[C@@H](CCCNC(=N)N)C(=O)N[C@@H](CC(C)C)C(=O)N1CCC[C@H]1C(=O)N[C@@H](CCC(N)=O)C(=O)N[C@@H](Cc1cnc[nH]1)C(=O)O` (H-SNQWISPRLPQH-OH) the figure was greater than 50 µM; with `CC[C@H](C)[C@H](NC(=O)[C@H](Cc1c[nH]c2ccccc12)NC(=O)[C@H](CCC(=O)O)NC(=O)[C@H](CC(N)=O)NC(=O)[C@@H](N)CO)C(=O)N[C@@H](CCC(N)=O)C(=O)N1CCC[C@H]1C(=O)N[C@@H](C)C(=O)N[C@@H](CC(C)C)C(=O)N1CCC[C@H]1C(=O)N[C@@H](CCC(N)=O)C(=O)N[C@@H](Cc1cnc[nH]1)C(=O)O` (H-SNEWIQPALPQH-OH), greater than 50 µM.

The molecule `CC[C@H](C)[C@H](NC(=O)[C@H](Cc1c[nH]c2ccccc12)NC(=O)[C@H](CCC(=O)O)NC(=O)[C@H](CC(N)=O)NC(=O)[C@@H](N)CO)C(=O)N[C@@H](CCC(N)=O)C(=O)N1CCC[C@H]1C(=O)N[C@@H](Cc1cnc[nH]1)C(=O)N[C@@H](CC(C)C)C(=O)N1CCC[C@H]1C(=O)N[C@@H](CCC(N)=O)C(=O)N[C@@H](Cc1cnc[nH]1)C(=O)O` (H-SNEWIQPHLPQH-OH) gave a Kd greater than 50 µM.

The molecule `CC[C@H](C)[C@H](NC(=O)[C@H](Cc1c[nH]c2ccccc12)NC(=O)[C@H](CCC(N)=O)NC(=O)[C@H](CC(N)=O)NC(=O)[C@@H](N)CO)C(=O)N[C@@H](CC(C)C)C(=O)N1CCC[C@H]1C(=O)N[C@@H](CCCN=C(N)N)C(=O)N[C@@H](CC(C)C)C(=O)N1CCC[C@H]1C(=O)N[C@@H](CCC(N)=O)C(=O)N[C@@H](Cc1cnc[nH]1)C(=O)O` (H-SNQWILPRLPQH-OH) had a Kd greater than 50 µM. As for `CC[C@H](C)[C@H](NC(=O)[C@@H]1CCCN1C(=O)CNC(=O)[C@H](CC(N)=O)NC(=O)[C@@H]1CCCN1C(=O)[C@H](CO)NC(=O)[C@H](Cc1ccccc1)NC(=O)[C@H](CC(C)C)NC(=O)[C@H](Cc1ccc(O)cc1)NC(=O)[C@H](CC(N)=O)NC(=O)[C@@H](N)[C@H](C)O)C(=O)N[C@@H](C)C(=O)N[C@@H](CCCN=C(N)N)C(=O)N[C@@H](C)C(=O)N[C@@H](Cc1c[nH]c2ccccc12)C(=O)O`, the Kd is greater than 50 µM.
